Values quoted from earlier work in US20130344141A1, “CONCENTRATION AND MENTAL PERFORMANCE AMPLIFYING FORMULATION” (priority 2009, published 2013).
Where two headings read alike, the source gives them in different places.

Legend:
[1] = taken orally
[2] = majority metabolized peripherally
[3] = in vivo, po
[4] = test system: acetylcholine
[5] = test system: cerebral cortex N-methyl-D-aspartate (NMDA) receptor
[6] = in vivo
[7] = test system: neurons; details: by blocking glutamate-induced neuronal calcium influx and cell death
[8] = test system: fungal microorganisms that cause onychomycosis; details: Trichophyton rubrum, T. mentagrophytes, Microsporum canis, Epidermophyton floccosum, E. stockdale
[9] = test system: neuroblastoma cells; details: in vitro
[10] = in vivo; remark: listed apart in the source
[11] = test system: platelet aggregation

In the case of “1,2-diacyl-:ussn:ueglycero-3-phosphocholine [phosphatidylcholine]”, the “time to maximum serum concentrations” value [1] is listed as 8 to 12 h.

For N[C@@H](Cc1ccc(O)c(O)c1)C(=O)O [L-dopa, levodopa], the “share that reaches the brain” value [2] is listed as “less than 1%”.

In the case of Cn1c(=O)c2c(ncn2C)n(C)c1=O [caffeine, 1,3,7-trimethylxanthine], the bioavailability [3] is listed as 100%.

For C/C=C1\[C@H]2C=C(C)C[C@]1(N)c1ccc(=O)[nH]c1C2 [huperzine A, Huperzine A], the “acetylcholine elevation, frontal cortex” value ([4]; maximal value, frontal cortex) is given as 125%, the “acetylcholine elevation, parietal cortex” value ([4]; maximal value, parietal cortex) is given as 105% and the “acetylcholine elevation, other brain regions” value ([4]; other brain regions) is given as 22-65%. The “affinity as NMDA receptor antagonist” value [5] was “low affinity”, the blood-brain barrier passage [6] was “crosses the blood-brain barrier” and the “protection of neurons against toxic levels of glutamate” value [7] was “protects neurons”.

For CC1CCC(C(C)C)C(O)C1 (stereo not shown) [menthol], the “activity against fungal microorganisms that cause onychomycosis” value [8] is listed as “active”.

For CN1CCCC1c1cccnc1 (stereo not shown) [nicotine, Nicotine], the elimination half-life (in the body) is given as “around two” and the blood-brain barrier passage (in vivo) is given as “crosses the blood-brain barrier”.

In the case of OC[C@H]1O[C@@H](OCCc2ccc(O)cc2)[C@H](O)[C@@H](O)[C@@H]1O [salidroside], the “apoptosis of neuroblastoma cells exposed to hydrogen peroxide” value [9] is given as “decreases apoptosis”.

In the case of CCOC(=O)C1=C[C@]2(CC)CCCN3CCc4c(n1c1ccccc41)[C@@H]32 [vinpocetine, Eburnamenine-14-carboxylic acid; Ethyl Ester], the bioavailability [10] is given as 7-57%, the “effect of food on absorption” value [10] is given as “food significantly enhances absorption” and the drug-induced platelet aggregation [11] is given as “inhibits”.
